According to patent US12037344B2, “NLRP3 modulators” (INNATE TUMOR IMMUNITY, INC., priority 2018, dated 2024):
pEC50: −log10 of the molar value. Where a name gives a salt, the structure may show the parent alone. Read-outs that look alike come from different tables or passages of the source.

Tests used:
TLR8 = biological target: T1, TLR8 (Homo sapiens, UniProt Q9NR97); assay: In vitro human TLR8 binding reporter assay (HEK-Blue, NF-kB/AP1-inducible SEAP); type: cell-based; conditions: read-out: TLR8 Agonist EC50
T1 construct: human HEK-Blue cells co-expressing a TLR7 or TLR8 gene
T1 sequence (Q9NR97 27-1041): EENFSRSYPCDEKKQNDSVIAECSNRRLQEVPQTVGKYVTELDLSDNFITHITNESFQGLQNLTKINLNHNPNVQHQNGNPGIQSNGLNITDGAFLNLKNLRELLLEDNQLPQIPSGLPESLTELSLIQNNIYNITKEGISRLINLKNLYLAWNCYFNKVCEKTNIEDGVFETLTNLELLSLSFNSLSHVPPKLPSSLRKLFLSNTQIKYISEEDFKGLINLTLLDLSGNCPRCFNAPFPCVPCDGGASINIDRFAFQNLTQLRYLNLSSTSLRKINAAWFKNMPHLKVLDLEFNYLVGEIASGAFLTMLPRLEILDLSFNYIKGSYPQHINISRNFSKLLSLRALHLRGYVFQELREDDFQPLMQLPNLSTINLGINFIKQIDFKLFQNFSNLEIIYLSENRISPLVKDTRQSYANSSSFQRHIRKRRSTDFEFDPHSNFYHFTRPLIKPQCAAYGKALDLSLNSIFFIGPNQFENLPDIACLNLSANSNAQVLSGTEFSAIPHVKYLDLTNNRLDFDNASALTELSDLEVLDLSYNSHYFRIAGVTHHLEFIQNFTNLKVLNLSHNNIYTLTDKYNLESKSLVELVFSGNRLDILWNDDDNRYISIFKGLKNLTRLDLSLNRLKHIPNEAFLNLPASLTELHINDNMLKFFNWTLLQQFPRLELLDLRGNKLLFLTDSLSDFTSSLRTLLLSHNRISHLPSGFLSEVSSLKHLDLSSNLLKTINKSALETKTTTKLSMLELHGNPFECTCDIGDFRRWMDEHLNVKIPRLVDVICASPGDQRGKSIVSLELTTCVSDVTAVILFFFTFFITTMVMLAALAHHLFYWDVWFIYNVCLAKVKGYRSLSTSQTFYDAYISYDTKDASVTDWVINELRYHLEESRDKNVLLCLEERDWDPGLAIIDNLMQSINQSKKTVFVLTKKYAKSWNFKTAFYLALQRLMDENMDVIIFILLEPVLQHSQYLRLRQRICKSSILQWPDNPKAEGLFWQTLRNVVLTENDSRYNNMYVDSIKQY
Procedure, shortened: (§1)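 EC50s come from NF-kB/AP1-driven SEAP secretion in HEK-Blue cells expressing TLR7 or TLR8, measured with Quanti-Blue after an 18 h compound incubation. Maximal response is defined by a 50 μM reference standard.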

TLR7 = biological target: T2, TLR7 (Homo sapiens, UniProt Q9NYK1); assay: In vitro human TLR7 binding reporter assay (HEK-Blue, NF-kB/AP1-inducible SEAP); type: cell-based; conditions: read-out: TLR7 Agonist EC50
T2 construct: human HEK-Blue cells co-expressing a TLR7 or TLR8 gene
T2 sequence (Q9NYK1 27-1049): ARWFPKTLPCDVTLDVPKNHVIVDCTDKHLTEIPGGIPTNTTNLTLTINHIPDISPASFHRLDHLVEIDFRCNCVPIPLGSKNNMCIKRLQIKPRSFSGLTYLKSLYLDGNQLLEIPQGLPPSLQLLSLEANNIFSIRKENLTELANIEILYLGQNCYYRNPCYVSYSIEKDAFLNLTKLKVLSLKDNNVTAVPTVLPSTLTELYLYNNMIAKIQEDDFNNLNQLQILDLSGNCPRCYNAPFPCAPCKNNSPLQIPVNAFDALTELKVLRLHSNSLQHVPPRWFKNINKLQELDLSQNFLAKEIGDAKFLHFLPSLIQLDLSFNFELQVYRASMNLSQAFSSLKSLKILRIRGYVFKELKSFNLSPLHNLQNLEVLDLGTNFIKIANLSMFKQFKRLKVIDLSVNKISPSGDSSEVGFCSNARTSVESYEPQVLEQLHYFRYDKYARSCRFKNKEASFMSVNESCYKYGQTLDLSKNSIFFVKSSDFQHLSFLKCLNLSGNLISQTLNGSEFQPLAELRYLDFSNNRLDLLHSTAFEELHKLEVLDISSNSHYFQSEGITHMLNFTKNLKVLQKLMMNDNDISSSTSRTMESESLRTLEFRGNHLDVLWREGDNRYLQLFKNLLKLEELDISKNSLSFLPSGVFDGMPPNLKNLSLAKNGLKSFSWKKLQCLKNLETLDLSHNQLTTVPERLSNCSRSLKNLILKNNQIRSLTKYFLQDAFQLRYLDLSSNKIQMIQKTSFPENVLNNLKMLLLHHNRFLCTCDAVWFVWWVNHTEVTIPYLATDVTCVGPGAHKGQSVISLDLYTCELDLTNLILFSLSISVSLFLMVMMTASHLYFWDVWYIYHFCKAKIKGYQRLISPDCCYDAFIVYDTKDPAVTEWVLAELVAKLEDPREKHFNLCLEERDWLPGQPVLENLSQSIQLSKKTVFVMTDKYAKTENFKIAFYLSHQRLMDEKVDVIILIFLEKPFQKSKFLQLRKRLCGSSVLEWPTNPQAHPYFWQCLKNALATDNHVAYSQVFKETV
Procedure, shortened: as §1

THP-1 cells = assay: Measurement of IL-1β production, hTRF protocol (second alternative procedure), THP-1 cells; type: cell-based, human
Procedure, shortened: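 THP-1 cells differentiated overnight with 50 ng/ml PMA, then plated at 50,000 cells/well in RPMI with 2% FBS onto serial compound dilutions (top final concentration 10 μM) for 2 hours at 37° C. Supernatant IL-1β measured by hTRF (antibodies at 1:40, overnight at 4° C), read at 665/615 nm against a standard curve.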

[1] = IL-1β production, human, read-out: NLRP3 hILIB EC50
[2] = Homo sapiens, THP-1, IL-1β production, human, read-out: NLRP3 hILIB EC50
[3] = Homo sapiens, THP-1, IL-1β production, human cells, read-out: NLRP3 hILIB EC50

pEC50 (TLR8; activity range class)	pEC50 (TLR7; activity range class)	pEC50 (THP-1 cells; [1])	pEC50 (THP-1 cells; [2])	pEC50 (TLR8; activity range)	pEC50 (TLR7; activity range)	pEC50 (THP-1 cells; [3])	Structure (SMILES)	pEC50 (THP-1 cells; Homo sapiens, THP-1, read-out: NLRP3 hILIB EC50)
< 4.00	< 4.00		5.46				CC(C)(F)C(=O)NCCn1cc2c(N)nc3cc(-c4cc[nH]n4)ccc3c2n1 [Example 203]	
< 4.00	< 4.00		5.85				CC(Cn1cc2c(N)nc3cc(-c4ccn[nH]4)ccc3c2n1)NS(C)(=O)=O (stereo not drawn) [Example 301]	
< 4.00	< 4.00	6.49					Nc1nc2cc(-c3cc[nH]n3)ccc2c2nn(CC(O)CC(F)(F)F)cc12 (single isomer, unassigned) [Example 379]	
				< 4.00	< 4.00	6.01	CC(C(=O)NCC(F)F)n1cc2c(N)nc3cc(-c4ccn[nH]4)ccc3c2n1 (stereo not drawn) [Example 567]	
				< 4.00	< 4.00	6.43	Nc1nc2cc(-c3cc[nH]n3)ccc2c2[nH]c(CN[C@H]3CCOC3)c(Cl)c12 [Example 487]	
				< 4.00	< 4.00	5.38	CC(C(=O)NCc1cccnc1)n1cc2c(N)nc3cc(-c4ccn[nH]4)ccc3c2n1 (stereo not drawn) [Example 565]	
< 4.00	< 4.00		6.15				CN(C)CCc1cc2c(N)nc3cc(-c4ccn[nH]4)ccc3c2[nH]1 [Example 153, 2-[2-(dimethylamino)ethyl]-7-(1H-pyrazol-5-yl)-1H-pyrrolo[3,2-c]quinolin-4-amine]	
				< 4.00	< 4.00	4.96	CC(C)S(=O)(=O)NCCCn1cc2c(N)nc3cc(-c4ccn[nH]4)ccc3c2n1 [Example 588]	
				< 4.00	< 4.00	5.94	CC(Cn1cc2c(N)nc3cc(-c4ccn[nH]4)ccc3c2n1)C(=O)N(C)C (stereo not drawn) [Example 488, 3-(4-amino-7-(1H-pyrazol-5-yl)-2H-pyrazolo[4,3-c]quinolin-2-yl)-N,N,2-trimethylpropanamide.TFA]	
				< 4.00	< 4.00	5.55	Nc1nc2cc(-c3cc[nH]n3)ccc2c2[nH]c(CCNC(=O)C3CCCO3)cc12 (stereo not drawn) [Example 414]	
				< 4.00	< 4.00	7.10	Nc1nc2cc(-c3cc[nH]n3)ccc2c2[nH]c(CCNC(=O)c3csc(Cl)n3)cc12 [Example 485]	
< 4.00	4.00 to 4.70		5.05				CC(C)C(=O)NCCn1cc2c(n1)c(N)nc1cc(-c3cc[nH]n3)ccc12 [Example 34]	
				< 4.00	< 4.00	5.70	CC(C)(Cn1cc2c(N)nc3cc(-c4ccn[nH]4)ccc3c2n1)C(=O)NC1CCC1 [Example 598]	

Further lines, the molecule ahead of its results:

Structure (SMILES)	pEC50 (TLR8; activity range class)	pEC50 (TLR7; activity range class)	pEC50 (THP-1 cells; [1])	pEC50 (THP-1 cells; [2])	pEC50 (TLR8; activity range)	pEC50 (TLR7; activity range)	pEC50 (THP-1 cells; [3])	pEC50 (THP-1 cells; Homo sapiens, THP-1, read-out: NLRP3 hILIB EC50)
Nc1nc2cc(-c3cc[nH]n3)ccc2c2nn(CC3CCOC3)cc12 (single isomer, unassigned) [Example 328]	< 4.00	< 4.00	5.87					
Nc1nc2cc(-c3cc[nH]n3)ccc2c2cn(CCNC(=O)c3cccc(Cl)c3)nc12 [Example 82]	4.00 to 4.70	< 4.00		6.14				
Nc1nc2cc(-c3cc[nH]n3)c(F)cc2c2c1cnn2CCO [Example 403]					< 4.00	< 4.00	5.42	
CN1CCN(C(=O)CCn2cc3c(N)nc4cc(-c5cc[nH]n5)ccc4c3n2)CC1 [Example 505]					< 4.00	< 4.00	4.53	
CN(CCn1cc2c(n1)c(N)nc1cc(-c3cc[nH]n3)ccc12)Cc1ccccc1 [Example 121, 2-{2-[benzyl(methyl)amino]ethyl}-7-(1H-pyrazol-3-yl)-2H-pyrazolo[3,4-c]quinolin-4-amine]	< 4.00	< 4.00						6.07
Nc1nc2cc(-c3cc[nH]n3)ccc2c2nn(C3CCCCC3O)cc12 (stereo not drawn) [Example 317]	< 4.00	< 4.00		5.62				
Nc1nc2cc(-c3cc[nH]n3)ccc2c2nn(CCNC(=O)c3cc(Cl)ccn3)cc12 [Example 197]	< 4.00	< 4.00		6.60				
Nc1nc2cc(-c3cc[nH]n3)ccc2c2cn(CCNC(=O)c3ccc(F)c(Cl)n3)nc12 [Example 89]	4.70 to 6.00	< 4.00		6.92				
COc1cccc(C(=O)NCCn2cc3c(n2)c(N)nc2cc(-c4cc[nH]n4)ccc23)n1 [Example 65]	4.00 to 4.70	< 4.00		6.46				
Nc1nc2cc(-c3cc[nH]n3)ccc2c2cn(CCNC(=O)c3ccncc3)nc12 [Example 37]	< 4.00	< 4.00		6.02				
Cc1cc(C)n(CCn2cc3c(n2)c(N)nc2cc(-n4cccn4)ccc23)n1 [Example 12]	4.00 to 4.70	4.00 to 4.70		5.82				
Nc1nc2cc(-c3cc[nH]n3)ccc2c2cn(CCNC(=O)c3cnco3)nc12 [Example 84]	< 4.00	< 4.00		5.75				
CC(C)(C)OC(=O)Nc1nc(C(=O)NCCn2cc3c(n2)c(N)nc2cc(-c4cc[nH]n4)ccc23)cs1 [Example 80]	4.00 to 4.70	< 4.00		5.68				
Nc1nc2cc(-c3cc[nH]n3)ccc2c2c1cnn2CC1CCCO1 (stereo not drawn) [Example 230]	< 4.00	< 4.00		6.06				
